Measurements published in PMC7584622, “Sensing of autoinducer-2 by functionally distinct receptors in prokaryotes” (Nature Communications, 2020).
Where “and” joins values, the source holds several entries; their conditions need not be identical. Equal values may be shown once.

Tests used:
PctB-LBD = PctB-LBD (Pseudomonas aeruginosa, UniProt Q9HW91); test: ITC binding to PctB-LBD; details: 700 μM DPD/AI-2 into 70 μM PctB-LBD, minor heats, not certain whether they reflect binding
Method: ITC experiments were performed at 20 °C using a Nano ITC Standard Volume isothermal calorimeter (TA Instruments, New Castle, DE). […] The stirring speed was 200 r.p.m. and 25 injections were used each experiment. Three independent experiments were performed for each sample. […] ITC data were analyzed and fit with a one-site independent binding model using the NanoAnalyze software version 3.4 provided by the manufacturer, with the heat of dilution subtracted from the experimental titrations before data analysis.

PctA = target: T1, PctA (Pseudomonas aeruginosa, UniProt G3XD24); test: in vitro methylation of PctA by CheR1 (LC-MS/MS); format: biochemical, P. aeruginosa; details: for Methylation level (%) of PctA at E381: CheR1, 10 μM SAM, 1 h, 30 °C; for Methylation level (%) of PctA, Fig. S5a / Methylation level (%) of PctA, Fig. S5b: site not given (Supplementary Fig. 5: E395 and E614)
T1 construct: the membrane fractions containing full-length PctA, KinD or rpHK1S-Z16 were collected; made in house; host or cells: E. coli HCB721 (pHSe5), membrane fractions
Method: The reaction was initiated by adding 10 μM SAM and the reaction was allowed to proceed for another 1 h at 30 °C. […] A control experiment was performed with no addition of SAM to check the initial methylation state of PctA. The reaction was stopped by adding 2× SDS-PAGE loading buffer. The reaction products were resolved by SDS-PAGE and stained with Coomassie brilliant blue. The gel bands corresponding to PctA were excised and used for detection and quantification of methylation by nano-LC-MS/MS.
Gel slices excised from SDS-PAGE gels were destained with three washes in 100 μl of 100 mM ammonium bicarbonate in 50% acetonitrile at 37 °C for 15 min. Destained gel pieces were dried in a SpeedVac (Thermo Fisher Scientific) for 15 min. 10 mM DTT in 25 mM ammonium bicarbonate was added to cover the gel pieces and incubated at 56 °C for 1 h. After cooling to room temperature, the supernatant was replaced by 55 mM iodoacetamide in 25 mM ammonium bicarbonate followed by 1 h incubation at room temperature in darkness. Gel slices were washed with 100 μl of 25 mM ammonium bicarbonate for 10 min, and then shrunk in acetonitrile for 10 min. Acetonitrile was removed and the gel slices were dried in a SpeedVac. The dried gel slices were swollen with 20 μl of 12.5 ng µl^−1 Pierce^TM trypsin protease (MS-grade; Thermo Fisher Scientific) in 50 mM ammonium bicarbonate at 4 °C for 1 h. An additional 30 μl of 50 mM ammonium bicarbonate was supplemented, followed by overnight incubation at 37 °C. After digestion, supernatants were transferred to a new tube, and remaining peptides were extracted from the gel slices with 50 μl of 0.1% trifluoroacetic acid at 37 °C for 30 min. Combined extracts for each gel slice were dried in a SpeedVac. The dried peptide samples were resolubilized in 0.1% formic acid and analyzed in C18 reversed-phase column connected to an EASY-nLC 1000 interfaced via a Nanospray Flex ion source to an Orbitrap Fusion Tribrid mass spectrometer (Thermo Fisher Scientific). The LC mobile phase consisted of 0.1% formic acid (v/v) in water (A) and 0.1% formic acid in acetonitrile (B). […] A data-dependent Top 20 method was used with precursor MS1 scan (m/z 350–1550) acquired in the Orbitrap at a resolution of 120,000, followed by Orbitrap HCD-MS/MS and OTHCD-MS/MS of the 20 most abundant multiply charged precursors in the MS1 spectrum. MS2 spectra were acquired at a resolution of 30,000. Methylation on glutamic acid residues of PctA and phosphorylation on histidine residues of KinD were set as variable modifications. Protein identification and quantification were performed using Mascot Daemon version 2.5.1 (Matrix Science, Boston, USA) considering the specific modifications.

Sequence of PctB-LBD (Q9HW91 32-276): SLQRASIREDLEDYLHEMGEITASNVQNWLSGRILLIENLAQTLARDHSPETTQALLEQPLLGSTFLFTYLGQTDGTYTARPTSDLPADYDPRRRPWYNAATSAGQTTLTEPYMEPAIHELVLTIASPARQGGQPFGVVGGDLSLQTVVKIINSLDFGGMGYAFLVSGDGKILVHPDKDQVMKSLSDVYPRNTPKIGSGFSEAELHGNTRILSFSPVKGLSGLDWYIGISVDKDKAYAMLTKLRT
T1 sequence (G3XD24 whole entry): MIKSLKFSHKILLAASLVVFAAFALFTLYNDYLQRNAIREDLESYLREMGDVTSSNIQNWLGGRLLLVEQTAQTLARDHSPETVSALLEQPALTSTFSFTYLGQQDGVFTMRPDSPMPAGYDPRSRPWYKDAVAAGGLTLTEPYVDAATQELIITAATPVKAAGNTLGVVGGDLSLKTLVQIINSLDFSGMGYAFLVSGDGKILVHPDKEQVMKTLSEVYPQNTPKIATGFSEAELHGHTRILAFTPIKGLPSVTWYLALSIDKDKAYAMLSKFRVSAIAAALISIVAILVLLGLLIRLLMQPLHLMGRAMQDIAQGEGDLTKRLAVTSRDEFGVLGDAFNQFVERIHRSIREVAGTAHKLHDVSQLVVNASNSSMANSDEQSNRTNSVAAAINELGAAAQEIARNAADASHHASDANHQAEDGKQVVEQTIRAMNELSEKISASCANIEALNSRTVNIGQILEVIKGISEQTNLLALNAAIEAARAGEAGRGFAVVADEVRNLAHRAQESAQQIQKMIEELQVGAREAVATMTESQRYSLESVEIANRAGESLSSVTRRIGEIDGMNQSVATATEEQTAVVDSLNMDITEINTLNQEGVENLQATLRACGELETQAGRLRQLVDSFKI

CC(=O)C(=O)C(O)CO (stereo not shown) [DPD/AI-2, 4,5-dihydroxy-2,3-pentanedione]
Kd (PctB-LBD): 205 µM and 176 µM and 163 µM | Methylation level (%) of PctA at E381 (PctA; 100 μM DPD/AI-2): 47.62% and 40.00% | Methylation level (%) of PctA, Fig. S5a (PctA; 100 μM DPD/AI-2): 41.67% and 36.36% and 40.00% | Methylation level (%) of PctA, Fig. S5b (PctA; 100 μM DPD/AI-2): 2.78% and 2.86% and 2.41% | Methylation level (%) of PctA at E381 (PctA; 500 μM DPD/AI-2): 66.67% and 55.56% and 63.16% | Methylation level (%) of PctA, Fig. S5a (PctA; 500 μM DPD/AI-2): 39.22% and 37.21% and 34.21% | Methylation level (%) of PctA, Fig. S5b (PctA; 500 μM DPD/AI-2): 2.27% and 2.63%
